A word on the IC50: it is the concentration that gives 50% inhibition. Higher therefore signals weaker potency in that assay.

Assay [1] concerns the target RAC-gamma serine/threonine-protein kinase (Homo sapiens, UniProt Q9Y243). The assay is described as follows: Inhibitory concentration against Akt3 kinase.
The target of assay [2] is RAC-alpha serine/threonine-protein kinase (Homo sapiens, UniProt P31749). The assay is described as follows: Inhibitory concentration against Akt1 kinase.
Assay [3] is described as follows: Inhibitory concentration against Akt2 kinase. Details: species or system Homo sapiens.

Chain of RAC-gamma serine/threonine-protein kinase (Q9Y243 whole entry, looked up): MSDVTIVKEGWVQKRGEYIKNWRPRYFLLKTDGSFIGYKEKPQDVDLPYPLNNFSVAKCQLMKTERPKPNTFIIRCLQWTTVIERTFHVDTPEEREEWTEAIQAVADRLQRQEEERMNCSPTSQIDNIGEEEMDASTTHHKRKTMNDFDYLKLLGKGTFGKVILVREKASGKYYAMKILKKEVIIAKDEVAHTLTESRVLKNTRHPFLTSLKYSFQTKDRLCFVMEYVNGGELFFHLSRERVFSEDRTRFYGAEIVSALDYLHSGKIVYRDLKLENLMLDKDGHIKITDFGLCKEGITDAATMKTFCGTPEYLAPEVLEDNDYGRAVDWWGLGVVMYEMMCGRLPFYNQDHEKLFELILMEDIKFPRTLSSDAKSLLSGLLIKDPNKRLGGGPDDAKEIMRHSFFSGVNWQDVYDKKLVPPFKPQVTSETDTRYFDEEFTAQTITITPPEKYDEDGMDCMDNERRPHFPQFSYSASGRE
Chain of RAC-alpha serine/threonine-protein kinase (P31749 whole entry): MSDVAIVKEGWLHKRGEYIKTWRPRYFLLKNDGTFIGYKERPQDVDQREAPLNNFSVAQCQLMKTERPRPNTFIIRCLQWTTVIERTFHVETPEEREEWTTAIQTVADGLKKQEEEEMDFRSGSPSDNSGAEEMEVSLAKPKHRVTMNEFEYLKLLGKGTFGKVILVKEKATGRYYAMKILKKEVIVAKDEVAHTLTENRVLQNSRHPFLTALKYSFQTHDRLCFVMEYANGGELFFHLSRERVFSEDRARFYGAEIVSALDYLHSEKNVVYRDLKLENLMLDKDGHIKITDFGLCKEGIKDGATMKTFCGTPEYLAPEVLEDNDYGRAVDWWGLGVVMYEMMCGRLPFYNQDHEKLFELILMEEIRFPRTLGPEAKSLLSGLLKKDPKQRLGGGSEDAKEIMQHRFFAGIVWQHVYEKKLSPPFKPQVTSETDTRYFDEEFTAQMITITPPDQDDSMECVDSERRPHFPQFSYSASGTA

For the molecule `Oc1nc2ccccc2n1C1CCN(Cc2ccc(-c3cc4ccccc4nc3-c3ccccc3)cc2)CC1`, the IC50 in assay [1] is above 50 µM; in assay [2], 3.14 µM; in assay [3] it was 33.7 µM.

As for `c1ccc(-c2cc(-c3nn[nH]n3)cnc2-c2ccc(CN3CCC(n4cnc5ccccc54)CC3)cc2)cc1`, the IC50 in assay [1] is above 50 µM; in assay [2] it was 4.24 µM; in assay [3], 1.96 µM.

With `c1ccc(-c2cc(-c3nn[nH]n3)cnc2-c2ccc(CN3CCC(c4nc5ccccc5[nH]4)CC3)cc2)cc1`, the values for the 50% inhibitory concentration (IC50) in assay [1], in assay [2] and in assay [3] were above 50 µM, 3.32 µM and 1.5 µM, respectively.

Turning to `Fc1ccc2[nH]c(C3CCN(Cc4ccc(-c5ncc(-c6nn[nH]n6)cc5-c5ccccc5)cc4)CC3)nc2c1`, the values for the IC50 in assay [1], in assay [2] and in assay [3] were above 50 µM, 0.239 µM and 1.72 µM, respectively.

Regarding `Cc1ccc2[nH]c(C3CCN(Cc4ccc(-c5ncc(C#N)cc5-c5ccccc5)cc4)CC3)nc2c1`, the IC50 in assay [1] is above 50 µM; in assay [2], 2.87 µM; in assay [3], 11.4 µM.

In the case of `Cn1nnnc1-c1cnc(-c2ccc(CN3CCC(n4c(=O)[nH]c5ccccc54)CC3)cc2)c(-c2ccccc2)c1`, the IC50 in assay [2] stood at 1.77 µM; in assay [3] it was 0.613 µM.

On to `N#Cc1cnc(-c2ccc(CN3CCC(n4c(=O)[nH]c5ccccc54)CC3)cc2)c(-c2ccccc2)c1`, for which the figures for the concentration for half-maximal inhibition (IC50) in assay [1], in assay [2] and in assay [3] were above 50 µM, 0.762 µM and 3.14 µM, respectively.

Regarding `O=c1[nH]c2ccccc2n1C1CCN(Cc2ccc(-c3ncc(-c4nnn[nH]4)cc3-c3ccccc3)cc2)CC1`, the IC50 was above 50 µM in assay [1], 0.273 µM in assay [2] and 0.157 µM in assay [3].

As for `Oc1nc2ccccc2n1C1CCN(Cc2ccc(-c3nc4ccccc4cc3-c3ccccc3)cc2)CC1`, the values for the IC50 in assay [1], in assay [2] and in assay [3] were above 50 µM, 0.365 µM and 1.21 µM, respectively.

With `N#Cc1cnc(-c2ccc(CNCc3ccc(-c4csnn4)cc3)cc2)c(-c2ccccc2)c1`, the figures for the IC50 in assay [1], in assay [2] and in assay [3] were above 50 µM, 1.29 µM and 4.81 µM, respectively.

On to `N#Cc1cnc(-c2ccc(CN3CCC(n4cnc5ccccc54)CC3)cc2)c(-c2ccccc2)c1`, for which the concentration for half-maximal inhibition (IC50) is above 50 µM in assay [1], 4.4 µM in assay [2] and 13 µM in assay [3].

As to `Cc1ccc2[nH]c(C3CCN(Cc4ccc(-c5ncc(-c6nn[nH]n6)cc5-c5ccccc5)cc4)CC3)nc2c1`, the values for the concentration for half-maximal inhibition (IC50) in assay [1], in assay [2] and in assay [3] were above 50 µM, 0.763 µM and 0.422 µM, respectively.

Take `N#Cc1cnc(-c2ccc(CN3CCC(c4nc5cc(F)ccc5[nH]4)CC3)cc2)c(-c2ccccc2)c1`: the IC50 is above 50 µM in assay [1], 0.865 µM in assay [2] and 6.65 µM in assay [3].

Regarding `N#Cc1cnc(-c2ccc(CN3CCC(c4nc5ccccc5[nH]4)CC3)cc2)c(-c2ccccc2)c1`, the half-maximal inhibitory concentration (IC50) was above 50 µM in assay [1], 1.47 µM in assay [2] and 8.74 µM in assay [3].

Turning to `Cc1nc2ccccc2n1C1CCN(Cc2ccc(-c3ncc(-c4nn[nH]n4)cc3-c3ccccc3)cc2)CC1`, the IC50 is above 50 µM in assay [1], 6.91 µM in assay [2] and 2.75 µM in assay [3].

`c1ccc(-c2cc(-c3nn[nH]n3)cnc2-c2ccc(CNCc3ccc(-c4csnn4)cc3)cc2)cc1`: the values for the IC50 in assay [1], in assay [2] and in assay [3] were above 50 µM, 0.177 µM and 0.248 µM, respectively.

As to `Cc1nc2ccccc2n1C1CCN(Cc2ccc(-c3ncc(C#N)cc3-c3ccccc3)cc2)CC1`, the half-inhibitory concentration (IC50) was above 50 µM in assay [1], 7.41 µM in assay [2] and 18.4 µM in assay [3].

(Values after ChEMBL document CHEMBL1141976, “Discovery of 2,3,5-trisubstituted pyridine derivatives as potent Akt1 and Akt2 dual inhibitors” (Bioorg Med Chem Lett, 2005).)
